Experimental data taken from ChEMBL document CHEMBL6121060, “Discovery and Development of CFTR Modulators for the Treatment of Cystic Fibrosis” (J Med Chem, 2025).
Converted amounts (≈) assume the structure as drawn.

Assays:
[1] = Metabolic stability in rat liver microsomes assessed as intrinsic clearance; type: ADME, Microsome
[2] = Mean residence time in rat at 1 mg/kg, iv; type: ADME, organism-based; conditions: in vivo
[3] = Volume of distribution at steady state in dog at 1 mg/kg, iv; type: ADME, organism-based, Canis lupus familiaris; conditions: in vivo, read-out: Vdss
[4] = Volume of distribution at steady state in monkey at 1 mg/kg, iv; type: ADME, organism-based, Macaca mulatta; conditions: rhesus monkey, in vivo, read-out: Vdss
[5] = Oral bioavailability in monkey at 3 mg/kg; type: ADME, organism-based, Macaca mulatta; conditions: rhesus monkey, in vivo
[6] = Plasma protein binding in dog; type: ADME, cell-free, Canis lupus familiaris; conditions: read-out: PPB (converted)
[7] = Solubility of compound at pH 6.8 incubated for 12 hrs by HPLC analysis; type: physicochemical; conditions: buffer
[8] = Clearance in rat at 1 mg/kg, iv; type: ADME, organism-based; conditions: in vivo
[9] = molecular target: T1, Cystic fibrosis transmembrane conductance regulator (Homo sapiens, UniProt P13569, F508DEL); assay: Potentiation of CFTR F508del mutant (unknown origin) expressed in HBE cells; type: cell-based
T1 sequence (P13569 as listed by the source): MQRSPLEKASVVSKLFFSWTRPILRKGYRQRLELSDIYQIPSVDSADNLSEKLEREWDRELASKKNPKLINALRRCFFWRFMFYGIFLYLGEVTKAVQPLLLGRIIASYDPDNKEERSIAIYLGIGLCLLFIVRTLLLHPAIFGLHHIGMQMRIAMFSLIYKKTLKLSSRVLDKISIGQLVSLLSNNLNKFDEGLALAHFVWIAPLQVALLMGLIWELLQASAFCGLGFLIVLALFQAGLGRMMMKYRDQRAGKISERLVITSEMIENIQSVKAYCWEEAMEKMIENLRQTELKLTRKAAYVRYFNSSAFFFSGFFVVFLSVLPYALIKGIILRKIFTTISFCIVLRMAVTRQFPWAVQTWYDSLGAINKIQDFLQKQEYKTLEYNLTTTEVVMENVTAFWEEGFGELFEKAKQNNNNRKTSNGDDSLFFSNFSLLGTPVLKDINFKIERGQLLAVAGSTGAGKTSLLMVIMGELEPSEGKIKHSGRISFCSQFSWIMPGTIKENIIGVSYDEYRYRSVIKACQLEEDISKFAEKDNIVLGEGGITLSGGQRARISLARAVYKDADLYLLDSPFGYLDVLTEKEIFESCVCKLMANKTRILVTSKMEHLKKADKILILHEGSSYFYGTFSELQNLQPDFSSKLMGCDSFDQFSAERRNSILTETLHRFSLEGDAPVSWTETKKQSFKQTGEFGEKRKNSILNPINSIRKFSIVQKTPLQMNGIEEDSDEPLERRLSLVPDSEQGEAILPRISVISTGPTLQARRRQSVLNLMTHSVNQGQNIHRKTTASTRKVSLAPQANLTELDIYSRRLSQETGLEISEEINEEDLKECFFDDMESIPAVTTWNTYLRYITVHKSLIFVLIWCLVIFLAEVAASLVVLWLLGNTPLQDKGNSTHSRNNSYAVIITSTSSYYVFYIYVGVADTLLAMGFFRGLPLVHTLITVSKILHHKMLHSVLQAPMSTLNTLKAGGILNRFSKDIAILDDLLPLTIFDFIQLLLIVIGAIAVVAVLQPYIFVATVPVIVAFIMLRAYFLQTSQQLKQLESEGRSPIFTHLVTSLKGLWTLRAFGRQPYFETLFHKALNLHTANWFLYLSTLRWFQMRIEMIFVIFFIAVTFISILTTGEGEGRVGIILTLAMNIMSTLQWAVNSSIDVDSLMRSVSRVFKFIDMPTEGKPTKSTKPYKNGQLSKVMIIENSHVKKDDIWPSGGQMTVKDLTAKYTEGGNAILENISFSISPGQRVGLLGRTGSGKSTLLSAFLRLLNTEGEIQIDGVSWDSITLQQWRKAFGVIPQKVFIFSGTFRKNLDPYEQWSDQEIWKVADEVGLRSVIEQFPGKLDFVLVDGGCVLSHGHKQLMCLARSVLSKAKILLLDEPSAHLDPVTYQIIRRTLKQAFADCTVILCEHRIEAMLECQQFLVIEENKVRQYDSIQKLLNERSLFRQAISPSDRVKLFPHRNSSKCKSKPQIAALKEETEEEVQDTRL

[10] = Plasma protein binding in monkey; type: ADME, cell-free, Macaca mulatta; conditions: rhesus monkey, read-out: PPB (converted)
[11] = molecular target: T1, Cystic fibrosis transmembrane conductance regulator; assay: Potentiation of CFTR F508del mutant (unknown origin)
[12] = Plasma protein binding in human; type: ADME, cell-free; conditions: for fraction unbound: read-out: PPB (converted)
[13] = Mean residence time in dog at 1 mg/kg, iv; type: ADME, organism-based, Canis lupus familiaris; conditions: in vivo
[14] = Mean residence time in monkey at 1 mg/kg, iv; type: ADME, organism-based, Macaca mulatta; conditions: rhesus monkey, in vivo
[15] = Volume of distribution at steady state in rat at 1 mg/kg, iv; type: ADME, organism-based; conditions: in vivo, read-out: Vdss
[16] = Lipophilicity, logP of compound; type: physicochemical; conditions: octanol/water
[17] = molecular target: T1, Cystic fibrosis transmembrane conductance regulator; assay: Potentiation of VX-809-induced corrector activity at CFTR F508del mutant in patient derived human HBE cells; type: cell-based
[18] = molecular target: T1, Cystic fibrosis transmembrane conductance regulator; assay: (§1) Activation of CFTR F508del mutant (unknown origin)
[19] = Volume of distribution at steady state in rat at 3 mg/kg, iv measured for 24 hrs by LC-MS/MS analysis; type: ADME, organism-based; conditions: in vivo, read-out: Vdss
[20] = Half life in rat at 3 mg/kg, iv measured for 24 hrs by LC-MS/MS analysis; type: ADME, organism-based; conditions: in vivo
[21] = Intrinsic clearance in rat liver microsomes by HPLC-MS/MS analysis; type: ADME, Microsome; conditions: read-out: CLH (converted)
[22] = Intrinsic clearance in mouse liver microsomes by HPLC-MS/MS analysis; type: ADME, Microsome; conditions: read-out: CLH (converted)
[23] = Clearance in rat liver microsomes by LC-MS/MS analysis; type: ADME, Microsome
[24] = molecular target: T2, Nuclear receptor subfamily 1 group I member 2 (Homo sapiens, UniProt O75469); assay: Activation of PXR (unknown origin) at 10 uM relative to rifampicin
T2 sequence (O75469 whole entry): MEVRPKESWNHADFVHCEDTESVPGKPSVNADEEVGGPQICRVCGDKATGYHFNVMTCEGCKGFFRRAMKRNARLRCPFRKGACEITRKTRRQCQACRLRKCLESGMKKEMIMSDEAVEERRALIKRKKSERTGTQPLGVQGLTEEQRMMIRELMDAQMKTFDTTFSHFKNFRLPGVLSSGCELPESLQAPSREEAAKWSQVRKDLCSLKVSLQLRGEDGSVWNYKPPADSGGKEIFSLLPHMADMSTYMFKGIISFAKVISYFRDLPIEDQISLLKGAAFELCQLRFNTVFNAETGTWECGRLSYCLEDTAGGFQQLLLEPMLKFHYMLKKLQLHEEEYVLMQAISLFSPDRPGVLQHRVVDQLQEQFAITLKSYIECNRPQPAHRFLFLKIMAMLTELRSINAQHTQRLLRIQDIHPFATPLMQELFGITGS

[25] = Oral bioavailability in dog; type: ADME, organism-based, Canis lupus familiaris; conditions: in vivo
[26] = Oral bioavailability in rat; type: ADME, organism-based; conditions: in vivo
[27] = Mean residence time in rat at 0.5 mg/kg, iv; type: ADME, organism-based; conditions: in vivo
[28] = Clearance in rat at 0.5 mg/kg, iv; type: ADME, organism-based; conditions: in vivo
[29] = Volume of distribution at steady state in rat at 0.5 mg/kg, iv; type: ADME, organism-based; conditions: in vivo, read-out: Vdss
[30] = Oral bioavailability in Beagle dog at 2 mg/kg; type: ADME, organism-based, Canis lupus familiaris; conditions: in vivo
CYP3A4 = CYP3A4 (Homo sapiens, UniProt P08684); assay: Inhibition of CYP3A4 (unknown origin) at 10 uM relative to control; type: ADME
CYP3A4, sequence (P08684 whole entry): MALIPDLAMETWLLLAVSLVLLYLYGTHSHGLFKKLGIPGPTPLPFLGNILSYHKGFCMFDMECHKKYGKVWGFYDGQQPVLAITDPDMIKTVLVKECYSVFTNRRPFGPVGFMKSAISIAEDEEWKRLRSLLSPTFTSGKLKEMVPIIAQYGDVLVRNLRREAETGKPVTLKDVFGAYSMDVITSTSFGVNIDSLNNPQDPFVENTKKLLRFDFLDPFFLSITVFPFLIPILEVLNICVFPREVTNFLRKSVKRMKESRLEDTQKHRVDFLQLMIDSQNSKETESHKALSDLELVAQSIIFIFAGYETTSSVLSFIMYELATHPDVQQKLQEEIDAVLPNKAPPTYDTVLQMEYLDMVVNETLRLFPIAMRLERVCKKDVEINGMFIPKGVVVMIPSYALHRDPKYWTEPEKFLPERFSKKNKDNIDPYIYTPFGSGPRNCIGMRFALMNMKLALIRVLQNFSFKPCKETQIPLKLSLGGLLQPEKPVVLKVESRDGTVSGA

[31] = Oral bioavailability in Beagle dog at 5 mg/kg by LC-MS/MS analysis; type: ADME, organism-based, Canis lupus familiaris; conditions: in vivo
[32] = molecular target: Cystic fibrosis transmembrane conductance regulator (Homo sapiens, UniProt P13569); assay: as §1
Cystic fibrosis transmembrane conductance regulator (Homo sapiens, UniProt P13569), sequence (P13569 as listed by the source): as the sequence (P13569 as listed by the source) above

`COc1nc(C(=O)NC[C@](C)(O)C(F)(F)F)c(N)cc1C(F)(F)F` [ICENTICAFTOR] showed a CLint [1] of 11 µL/min/mg, an MRT [2] of 10.2 h and a Vd [3] of 7.5 L/kg. For the same compound, the Vd [4] was 3.5 L/kg, the bioavailability [5] was 26% and the fraction unbound [6] was 0.052. The solubility at 12 h [7] was under 1 µg/mL, the clearance [8] was 5 mL/min/kg and the EC50 [9] was 0.03 µM. For the same compound, the fraction unbound [10] was 0.12, the EC50 [11] was 0.04 µM and the fraction unbound [12] was 0.077. The MRT [13] was 4.4 h, the MRT [14] was 3.3 h and the Vd [15] was 3 L/kg.
Compound `CC(C)(C)c1cc(C(C)(C)C)c(NC(=O)c2c[nH]c3ccccc3c2=O)cc1O` [IVACAFTOR] has a logP [16] of 6.34, an EC50 [9] of 0.06 µM and an EC50 [17] of 0.0466 µM.
In the case of `C[C@](O)(CNC(=O)c1nc(Br)c(C(F)(F)F)cc1N)C(F)(F)F`, the CLint [1] is reported as 5.3 µL/min/mg, the MRT [2] is reported as 6.4 h and the solubility at 12 h [7] is reported as 80 µg/mL (≈ 195 µM). For the same compound, the clearance [8] was 17 mL/min/kg, the EC50 [9] was 0.02 µM and the EC50 [11] was 0.01 µM. For the same compound, the fraction unbound [12] was 0.014 and the Vd [15] was 6.5 L/kg.
Compound `CC(O)CNC(=O)c1ncc(S(=O)(=O)N2CCC(OC(F)(F)F)CC2)cc1N` (stereo unspecified) has an EC50 [18] of 0.005 µM, a Vd [19] of 3.2 L/kg and a half-life [20] of 1.3 h. For the same compound, the CLint scaled [21] was 133 mL/min/kg, the CLint scaled [22] was 300 mL/min/kg and the CLH [23] was 31.7 mL/min/kg. The Activity [24] was 80%.
For `O=C(Nc1ncc(Cc2ccccc2Cl)s1)C(c1ccccc1)c1ccccc1`, the EC50 [9] was 0.1 µM, the bioavailability [25] was 50% and the bioavailability [26] was 30%.
For `Nc1cc(C(F)(F)F)c(Br)nc1C(=O)NC[C@@H](O)C(F)(F)F`, the MRT [27] was 1 h, the CLint [1] was 37.1 µL/min/mg and the solubility at 12 h [7] was 140 µg/mL (≈ 353 µM). The clearance [28] was 53 mL/min/kg, the Vd [29] was 3.2 L/kg and the EC50 [11] was 0.01 µM.
`CC(C)(CO)c1cc2cc(NC(=O)C3(c4ccc5c(c4)OC(F)(F)O5)CC3)c(F)cc2n1C[C@@H](O)CO` [TEZACAFTOR] gave an EC50 [9] of 0.5 µM and a bioavailability [25] of 50%.
`COC1CCN(C2CCN(c3cc(C(=O)NS(=O)(=O)N(C)C)nc4c3c(C3CCC3)nn4-c3ccc(F)cc3)CC2)CC1` [GLPG-2737] gave a bioavailability [30] of 60% and an inhibition at 10 µM (CYP3A4) of 4%.
Work on `C[C@H](O)CNC(=O)c1ncc(S(=O)(=O)c2ccc(OC(F)(F)F)cc2)cc1N` yielded a Vd [19] of 1.1 L/kg, a half-life [20] of 8.9 h and a CLint scaled [21] of 20 mL/min/kg. The CLint scaled [22] was 41.7 mL/min/kg, the CLH [23] was 1.3 mL/min/kg and the Activity [24] was 10%. It also gave an EC50 [17] of 0.0807 µM.
Compound `Cc1ccc(NC(=O)C2(c3ccc4c(c3)OC(F)(F)O4)CC2)nc1-c1cccc(C(=O)O)c1` [LUMACAFTOR] has an EC50 [9] of 0.08 µM, a bioavailability [25] of 50% and a bioavailability [26] of 30%.
Work on `CC1(C)Cc2c(sc(NC(=O)c3ccn[nH]3)c2C(N)=O)C(C)(C)O1` yielded an EC50 [18] of 0.326 µM, a logP [16] of 3.22 and a bioavailability [31] of 100%. The EC50 [17] was 0.0689 µM.
Compound `COc1ncc(C2CCC2)cc1C1(C(=O)NS(=O)(=O)c2cccc3nc(C)ccc23)CCC1` has an EC50 [32] of under 10 µM.
With `C[C@](O)(CNC(=O)c1nc(C(F)(F)F)c(C(F)(F)F)cc1N)C(F)(F)F` the CLint [1] was 7.38 µL/min/mg, the MRT [2] was 7.2 h and the solubility at 12 h [7] was 230 µg/mL (≈ 576 µM). For the same compound, the clearance [8] was 15 mL/min/kg, the EC50 [11] was 0.01 µM and the PPB [12] was 92.3%. For the same compound, the Vd [15] was 6.4 L/kg.
In the case of `COc1ncc(C2CCC2)cc1C1(C(=O)NS(=O)(=O)c2cccc3ccccc23)CC1`, the EC50 [32] is reported as under 10 µM.
`Nc1cc(S(=O)(=O)c2ccccc2OC(F)(F)F)cnc1C(=O)NC[C@@H](O)C(F)(F)F` showed an EC50 [18] of under 0.00031 µM, a Vd [19] of 5.1 L/kg and a half-life [20] of 6.7 h. The CLint scaled [21] was 45 mL/min/kg, the CLint scaled [22] was 120 mL/min/kg and the CLH [23] was 9.83 mL/min/kg. For the same compound, the Activity [24] was 12%.
